Results as given in US8399465B2, “Compounds with two fused bicyclic heteroaryl moieties as modulators of leukotriene A4 hydrolase” (Janssen Pharmaceutica NV, priority 2009, dated 2013).
Counter-ions that a name gives are not always drawn. Like-named read-outs stand apart in the source and are kept apart here.

Key:
[1] = system: ex vivo calcium ionophore-stimulated LTB4 production in whole blood; assay: Murine arachidonic acid-induced inflammation model: ex vivo stimulated LTB4 production in blood; parameters: species or system Balb/c mice; conditions: Mus musculus; 30 mg/kg oral gavage; blood diluted 1:1, A23187 stimulated ex vivo; percent inhibition of LTB4 production; read-out: % Inh. LTB4
Method: (§1) Assay 3: Murine Arachidonic Acid-Induced Inflammation Model
(§2) LTA4H inhibitor compounds of the present invention were dissolved in 20% cyclodextran/H2O at a concentration of 3 mg/mL. The solutions were administered by oral gavage to female Balb/c mice weighing approximately 20 grams each (0.2 mL per mouse, 30 mg of LTA4H inhibitor compound per kg). Sixty minutes after being administered an LTA4 inhibitor, each mouse received topical application of 20 μL of arachidonic acid (100 mg/mL in acetone) to the left ear and 20 μL of acetone only to the right ear. After 3 h, the mice were sacrificed, blood was withdrawn in heparinized syringes, and 8 mm ear biopsies were taken. Ear biopsies were weighed to determine edema and then frozen at −80° C. until needed for determination of neutrophil influx.
The microtiter plate contents were incubated for 30 min at 37° C. in a humidified incubator. The reaction was terminated by centrifugation (833×g, 10 min at 4° C.). Supernatants were analyzed for LTB4 by a commercially available enzyme-linked immunoassay (Cayman Chemical Co.) in accordance with the manufacturer's instructions. The percent inhibition of ex vivo stimulated LTB4 production (% Inh. LTB4) was determined by comparison to animals treated identically except that the solution administered by oral gavage was devoid of inhibitor compound.

[2] = target: T1, recombinant human LTA4 hydrolase (rhLTA4H) (Homo sapiens, UniProt P09960); assay: Recombinant human LTA4 hydrolase assay for LTA4 hydrolase inhibitor activity; format: biochemical; conditions: rhLTA4H, LTB4 by immunoassay; single determination or average of two or more; mark after value = form tested: ′ free base, ″ hydrochloride, ^ formate; read-out: IC50
T1 construct: made in house; host or cells: Spodoptera frugiperda (Sf-9) cells, baculovirus (pFastBac1)
T1 sequence (P09960 1-611): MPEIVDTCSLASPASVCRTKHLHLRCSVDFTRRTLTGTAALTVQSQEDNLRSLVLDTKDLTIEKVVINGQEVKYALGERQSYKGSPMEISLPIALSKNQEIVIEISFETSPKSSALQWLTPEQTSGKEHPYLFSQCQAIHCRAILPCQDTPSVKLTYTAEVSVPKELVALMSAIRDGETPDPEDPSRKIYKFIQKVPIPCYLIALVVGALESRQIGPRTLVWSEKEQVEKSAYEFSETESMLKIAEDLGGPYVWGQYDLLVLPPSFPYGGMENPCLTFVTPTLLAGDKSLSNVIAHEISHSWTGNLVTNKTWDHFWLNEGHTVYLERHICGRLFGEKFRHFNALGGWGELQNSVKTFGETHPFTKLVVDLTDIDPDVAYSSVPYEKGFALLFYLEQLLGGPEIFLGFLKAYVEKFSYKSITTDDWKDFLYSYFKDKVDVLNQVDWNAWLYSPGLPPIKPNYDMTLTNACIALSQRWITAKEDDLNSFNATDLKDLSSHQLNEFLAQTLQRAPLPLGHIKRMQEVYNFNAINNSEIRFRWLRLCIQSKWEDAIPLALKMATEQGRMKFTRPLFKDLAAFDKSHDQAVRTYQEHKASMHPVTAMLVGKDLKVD
Summary of the method: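 LTB4 formation, measured by enzyme immunoassay, was the read-out. The enzyme, recombinant human LTA4H expressed in Sf-9 insect cells (10 ng per reaction), was exposed to compound for 10 min at room temperature before hydrolysed-ester LTA4 substrate was added for 30 min. Enzyme-free negatives were included.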

[3] = system: LTB4 production in murine blood (LTA4H); assay: LTB4 production by calcium ionophore-stimulated murine blood for LTA4H inhibitor activity; format: cell-based, CD-1 mice; conditions: Mus musculus; murine blood diluted 1 in 15, A23187 stimulated; single determination or average; mark after value = form tested: ′ free base, ″ hydrochloride, ^ formate; read-out: IC50
Summary of the method: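 LTB4 was measured by ELISA in supernatants after calcium ionophore A23187 stimulation (final 7 μg/mL, 30 min, 37° C) of CD-1 mouse blood collected on heparin. Compound was preincubated with the blood for 15 min beforehand. Values come from one determination or average several.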

[4] = system: arachidonic acid-induced neutrophil influx in murine ear tissue; assay: Murine arachidonic acid-induced inflammation model: neutrophil influx (myeloperoxidase) in ear; format: in vivo, Balb/c mice; conditions: Mus musculus, read-out: % Inh. MPO
Method: as §1, §2
Neutrophil influx was quantified by measuring the activity of myeloperoxidase (MPO), a neutrophil-specific enzyme. […] Debris was removed by centrifugation at 14000×g for 10 min. […] The microtiter plate contents were held at room temperature until the sample with the highest concentration of MPO reached an absorbance value of 0.4 at 650 nm. The reaction was stopped by addition of 50 μL 1 M H2SO4 to each sample well, and the myeloperoxidase activity in each sample was determined from the absorbance at […]. The background value from the right ear, treated only with acetone, was subtracted from that for the left ear, treated with arachidonic acid in acetone, for each animal. The percent inhibition of neutrophil influx (% Inh. MPO) by compounds of the invention was determined by comparison to animals treated identically, except that the solution administered by oral gavage was devoid of inhibitor compound. All compounds were assayed in their free base form.

[5] = 30 mg/kg oral gavage, 60 min before topical arachidonic acid, ear biopsy after 3 h, percent inhibition of neutrophil influx

IC50 [2]	IC50 [3]	Structure (SMILES)	inhibition at 30 mg/kg [1]	inhibition at 30 mg/kg [4, 5]	inhibition at 30 mg/kg ([4]; Neutrophil)
140 nM	110 nM	O=C1CCCN1C1CCN(Cc2cc3cc(Oc4nc5ncccc5s4)ccc3o2)CC1 [Example 96, 1-{1-[5-(Thiazolo[4,5-b]pyridin-2-yloxy)-benzofuran-2-ylmethyl]-piperidin-4-yl}-pyrrolidin-2-one]	66%	53%	
36 nM	210 nM	CC(=O)N1C[C@@H]2C[C@H]1CN2Cc1cc2ccc(Oc3nc4ncccc4s3)cc2o1 [Example 168, (1S,4S)-1-{5-[6-(Thiazolo[4,5-b]pyridin-2-yloxy)-benzofuran-2-ylmethyl]-2,5-diaza-bicyclo[2.2.1]hept-2-yl}-ethanone]	70%	74%	
4 nM	12 nM	c1cnc2nc(Oc3ccc4c(CN5CCCC5)coc4c3)sc2c1 [Example 185, 2-(3-Pyrrolidin-1-ylmethyl-benzofuran-6-yloxy)-thiazolo[4,5-b]pyridine]	75%	64%	
5 nM	70 nM	NC(=O)NC1CCN(Cc2coc3cc(Oc4nc5ncccc5s4)ccc23)CC1 [Example 240, {1-[6-(Thiazolo[4,5-b]pyridin-2-yloxy)-benzofuran-3-ylmethyl]-piperidin-4-yl}-urea]	50%	0%	
69 nM	160 nM	NC(=O)N1C[C@@H]2C[C@H]1CN2Cc1cc2cc(Oc3nc4ncccc4s3)ccc2o1 [Example 100, (1S,4S)-5-[5-(Thiazolo[4,5-b]pyridin-2-yloxy)-benzofuran-2-ylmethyl]-2,5-diaza-bicyclo[2.2.1]heptane-2-carboxylic acid amide]	44%	33%	
3 nM	28 nM	NC(=O)C1CCCN(Cc2coc3cc(Oc4nc5ncccc5s4)ccc23)C1 (stereo in doubt) [Example 216, (3S)-1-[6-(Thiazolo[4,5-b]pyridin-2-yloxy)-benzofuran-3-ylmethyl]-piperidine-3-carboxylic acid amide]	87%	87%	
26 nM	63 nM	CC(=O)N[C@H]1C[C@@H]2C[C@H]1CN2Cc1cc2cc(Oc3nc4ncccc4s3)ccc2o1 [Example 188, (1S,4S,5S)—N-{2-[5-(Thiazolo[4,5-b]pyridin-2-yloxy)-benzofuran-2-ylmethyl]-2-aza-bicyclo[2.2.1]hept-5-yl}-acetamide]	73%	78%	
35 nM	22 nM	CC(=O)N1CC2CN(Cc3cc4cc(Oc5nc6ncccc6s5)ccc4o3)CC2C1 (centres unmarked) [Example 90, 1-{5-[5-(Thiazolo[4,5-b]pyridin-2-yloxy)-benzofuran-2-ylmethyl]-hexahydro-pyrrolo[3,4-c]pyrrol-2-yl}-ethanone]	61%	50%	
1 nM	6 nM	COC[C@@H]1CCCN1Cc1coc2cc(Oc3nc4ncccc4s3)ccc12 [Example 186, (2S)-2-[3-(2-Methoxymethyl-pyrrolidin-1-ylmethyl)-benzofuran-6-yloxy]-thiazolo[4,5-b]pyridine]	86%	79%	
52 nM	202 nM	NC(=O)N1C[C@H]2C[C@@H]1CN2Cc1cc2cc(Oc3nc4ncccc4s3)ccc2o1 [Example 101, (1R,4R)-5-[5-(Thiazolo[4,5-b]pyridin-2-yloxy)-benzofuran-2-ylmethyl]-2,5-diaza-bicyclo[2.2.1]heptane-2-carboxylic acid amide]	53%	65%	
17 nM	21 nM	c1cnc2nc(Oc3ccc4c(CN5CCOCC5)coc4c3)sc2c1 [Example 156, 2-(3-Morpholin-4-ylmethyl-benzofuran-6-yloxy)-thiazolo[4,5-b]pyridine]	91%	86%	
5 nM	80 nM	CC(=O)N1C[C@@H]2CC[C@H]1CN2Cc1cc2ccc(Oc3nc4ncccc4s3)cc2o1 [Example 170, meso-1-{5-[6-(Thiazolo[4,5-b]pyridin-2-yloxy)-benzofuran-2-ylmethyl]-2,5-diaza-bicyclo[2.2.2]oct-2-yl}-ethanone]	76%	70%	
37 nM	63 nM	c1cnc2nc(Oc3ccc4oc(CN5C[C@@H]6C[C@H]5CO6)cc4c3)sc2c1 [Example 99, (1S,4S)-2-[2-(2-Oxa-5-aza-bicyclo[2.2.1]hept-5-ylmethyl)-benzofuran-5-yloxy]-thiazolo[4,5-b]pyridine]	15%	58%	

Structure (SMILES)	IC50 [2]	IC50 [3]	inhibition at 30 mg/kg [1]	inhibition at 30 mg/kg [4, 5]	inhibition at 30 mg/kg ([4]; Neutrophil)
CC(=O)N[C@H]1C[C@H]2CC[C@@H](C1)N2Cc1cc2ccc(Oc3nc4ncccc4s3)cc2o1 [Example 118, meso-endo-N-{8-[6-(Thiazolo[4,5-b]pyridin-2-yloxy)-benzofuran-2-ylmethyl]-8-aza-bicyclo[3.2.1]oct-3-yl}-acetamide]	23 nM	50 nM	89%	97%	
CC(=O)N[C@@H]1C[C@H]2CC[C@@H](C1)N2Cc1cc2ccc(Oc3nc4ncccc4s3)cc2o1 [Example 106, meso-exo-N-{8-[6-(Thiazolo[4,5-b]pyridin-2-yloxy)-benzofuran-2-ylmethyl]-8-aza-bicyclo[3.2.1]oct-3-yl}-acetamide]	7 nM	14 nM	85%	81%	
CC(=O)N1C[C@@H]2CC[C@H]1CN2Cc1cc2ncc(Oc3nc4ncccc4s3)cc2o1 [Example 339, (1S,4S)-1-{5-[6-(Thiazolo[4,5-b]pyridin-2-yloxy)-furo[3,2-b]pyridin-2-ylmethyl]-2,5-diaza-bicyclo[2.2.2]oct-2-yl}-ethanone formate]	12 nM	70 nM	50%		50%
CC(=O)N1C[C@H]2CC[C@@H](C1)N2Cc1coc2cc(Oc3nc4ncccc4s3)ccc12 [Example 153, 1-{8-[6-(Thiazolo[4,5-b]pyridin-2-yloxy)-benzofuran-3-ylmethyl]-3,8-diaza-bicyclo[3.2.1]oct-3-yl}-ethanone]	2 nM	25 nM	84%	82%	
